Where a name gives a salt, the structure may show the parent alone.

Assay [1] concerns NIH:OVCAR-3. In words: OVCAR3 xenograft in huNOG mice, combination with irinotecan hydrochloride. The format is in vivo. The note with it: 60 days after transplantation; CS4135 0.1 mg/kg, irinotecan hydrochloride 25 mg/kg, iv days 39, 46. As for the experimental part:
In this test, NOG(huNOG) mice (described in the aforementioned Example 13) transplanted with ovarian cancer cell line NIH:OVCAR-3 (OVCAR3, ATCC) and human CD34-positive cells were used. The OVCAR3 cell line was transplanted subcutaneously to the right flank of the mice, and the mice were divided into groups 39 days after transplantation. Individuals whose tumor volume reached 160 to 263 mm^3 were divided into groups. Vehicle 1 and CS4135 were administered into the mouse tail vein 39 and 46 days after transplantation. PBS containing 0.05% Tween-20 was used as Vehicle 1. Vehicle 2 and irinotecan hydrochloride (Sawai Pharmaceutical Co., Ltd.) were administered into the mouse tail vein 39 and 46 days after transplantation. Physiological saline was used as Vehicle 2.
Tumor volume was measured 39, 42, 46, 49, 53, 57, and 60 days after transplantation, and the average tumor volume is indicated for each group. The tumor volume was calculated by the following equation: […]
(§1) Tumor Growth Inhibition (TGI) was calculated by the following equation: […]

Assay [2] has as its system CLDN6 expression in OV-90. Put plainly: CLDN6 expression by FACS after PARP inhibitor, OV-90. The class given is cell-based, human. As to conditions: BRAC1 wildtype OV-90, 0.03-3 μM, 3 days. On the procedure: (§2) Induction of CLDN6 expression by a PARP inhibitor (olaparib) was assessed. BRCA1-deficient ovarian cancer cell line UWB1.289 (ATCC) or BRAC1 wildtype ovarian cancer cell line OV-90 (ATCC) which express human CLDN6 were used.
(§3) Target cells (3×10^5 cells) were plated onto a 6-well plate at 3 mL/well. After culturing overnight, olaparib was added at a final concentration of 0.03, 0.1, 0.3, 1, or 3 μM. DMSO was added to the control well. After incubating the plate for 3 days, the cells were recovered and the amount of CLDN6 expression on the cell surface was determined by FACS analysis using an anti-CLDN6 antibody. The level of fluorescence in the target cells recovered from the wells, to which various concentrations of olaparib were added, are shown in FIG. 27, wherein the level of fluorescence in the target cells recovered from the control well was defined as 1.
On the technique in general: A flow cytometer gives signals particle by particle.

Assay [3] relates to CLDN6 expression in UWB1.289. Put plainly: CLDN6 expression by FACS after PARP inhibitor, UWB1.289. As to conditions: BRCA1-deficient UWB1.289, 0.03-3 μM, 3 days. The format is cell-based, human. As for the experimental part: as §2, §3
Assay [4] relates to TGF-β1 expression in NIH:OVCAR-3. In words: TGF-β1 expression by quantitative PCR after chemotherapeutic agents. The note with it: 6 days; same treated cells as Example 21.1; vs untreated. The format is cell-based, human. As for the experimental part: Next, the cDNAs prepared from the human ovarian cancer cell line (NIH:OVCAR-3, ATCC) treated with carboplatin, cisplatin, irinotecan, or gemcitabine, which were used in Example 21.1, were used to perform real-time PCR with TGF-β1-specific primers (Power SYBR (registered trademark) Green Master Mix, ThermoFisher), and TGF-β1 expression was analyzed (QuantStudio 12K Flex Real-Time PCR System, ThermoFisher).
Sequences of the primers for human TGF-β1 are as follows: […]
The same primers as those in the above-mentioned Example 21.1 were used as the primers for human GAPDH used as the internal control.

Assay [5] concerns CLDN6 expression in NIH:OVCAR-3. In words: CLDN6 expression by quantitative PCR after chemotherapeutic agents. The format is cell-based, human. As to conditions: 6 days; carboplatin 0.5 μg/mL, cisplatin 0.1 μg/mL, irinotecan 0.25 μg/mL, gemcitabine 2 ng/mL; vs untreated. As for the experimental part:
Various chemotherapeutic agents were added to human ovarian cancer cell line (NIH:OVCAR-3, ATCC) to analyze the change in CLDN6 expression. Regarding the NIH:OVCAR-3 cells seeded on culture plates, RNAs were purified (RNeasy Mini Kit, QIAGEN) from cells to which no pharmaceutical agent was added (untreated cells), or from cells collected 6 days after addition of carboplatin (0.5 μg/mL), cisplatin (0.1 μg/mL), irinotecan (0.25 μg/mL), or gemcitabine (2 ng/mL), and then cDNA synthesis (Superscript IV VILO Master Mix, ThermoFisher) was performed. By using the cDNAs as templates, real-time PCR was performed using CLDN6-specific primers (Power SYBR (registered trademark) Green Master Mix, ThermoFisher) to analyze CLDN6 expression (QuantStudio 12K Flex Real-Time PCR System, ThermoFisher). Sequences of the primers for human CLDN6 and the primers for human GAPDH that were used as the internal control are as follows: […]

Assay [6] relates to TGF-β1 expression in cancer cells. The note with it: reported in literature; cited from earlier work.
Assay [7] has as its system CLDN6 expression in NIH-OVCAR3, NCI-H1435, SNG-M. Put plainly: CLDN6 expression by FACS after platinum preparation treatment. The class given is cell-based, human. The note with it: 5 days; cisplatin 0.1 or 0.6 μg/mL, carboplatin 0.5 or 5 μg/mL; vs untreated. On the procedure:
Human ovarian cancer cell line (NIH-OVCAR3, ATCC), human lung cancer cell line (NCI-H1435, ATCC), and human endometrial cancer cell line (SNG-M, Health Science Research Resources Bank) were treated with cisplatin (CDDP, Nichiiko) or carboplatin (CBDCA, Sandoz) to analyze the effect of the treatment on CLDN6 expression.
Each cell was subjected to the addition of cisplatin at 0.1 μg/mL (OVCAR3) or 0.6 μg/mL (H1435, SNG-M), or carboplatin at 0.5 μg/mL (OVCAR3) or 5 μg/mL (H1435, SNG-M), and then cultured for five days. After culturing, the cells were recovered, and CLDN6 expression was analyzed by FACS.
In FACS analysis, cells were detached from the culturing flask and then reacted with an anti-CLDN6 antibody (AE3-20 mIgG2a, Japanese Patent No. 5848863) or an isotype antibody (mIgG2a, BioLegend) at 2 μg/mL, at 4° C. for one hour. Next, reaction with Alexa Flour 488-labeled anti-mouse IgG (ThermoFisher) at 10 μg/mL was performed at 4° C. for one hour, and the amount of CLDN6 expression was analyzed using a flow cytometer (FACSVerse, BD Biosciences).

The test system of assay [8] is SNG-M. Put plainly: SNG-M xenograft in huNOG mice, combination with carboplatin. The class given is in vivo. As to conditions: 30 days after transplantation; CS4135 0.5 mg/kg iv day 13, carboplatin 40 mg/kg ip days 13, 16, 20. On the procedure:
In this test, NOG (huNOG) mice (described in the aforementioned Example 13) transplanted with human uterus cancer cell line SNG-M and human CD34-positive cells were used. The SNG-M cell line was transplanted subcutaneously to the right flank of the mice, and the mice were divided into groups 13 days after transplantation. Individuals whose tumor volume reached 130 to 244 mm^3 were divided into groups. Vehicle 1 and CS4135 were administered into the mouse tail vein 13 days after transplantation. PBS containing 0.05% Tween-20 was used as Vehicle 1. Vehicle 2 and carboplatin (Bristol Myers Squibb Company) were administered intraperitoneally to the mice 13, 16, and 20 days after transplantation. Physiological saline was used as Vehicle 2.
Tumor volume was measured 13, 16, 20, 23, 26, and 30 days after transplantation, and the average tumor volume was indicated for each group.
The tumor volume was calculated by the following equation: […]
as §1

For assay [9], the system named is CLDN6 expression in SNG-M tumor. In words: CLDN6 expression by real-time PCR in SNG-M tumor transplant. The class given is in vivo, NOD/scid mice. As to conditions: 40 mg/kg or 80 mg/kg ip twice, vs vehicle. On the procedure:
SNG-M (1×10^7 cells) was transplanted subcutaneously to NOD/scid mice (CLEA Japan). After tumor engraftment, the vehicle (physiological saline) or carboplatin at 40 mg/kg or 80 mg/kg was administered intraperitoneally on the day of transplantation (day 0) and 3 days after transplantation (day 3), and the tumor was sampled 6 days after transplantation (day 6).
RNA was purified from the tumor (RNeasy Mini Kit, QIAGEN), and then cDNA synthesis was performed (Superscript IV VILO Master Mix, ThermoFisher). Using the cDNAs as templates, real-time PCR was performed using a CLDN6-specific primer (Power SYBR (registered trademark) Green Master Mix, ThermoFisher) to analyze CLDN6 expression (QuantStudio 12K Flex Real-Time PCR System, ThermoFisher).
Sequences of the primers for human CLDN6 and primers for human GAPDH used as an internal control are as follows: […]
In general terms: Quantitative PCR measures a nucleic acid by following its amplification.

Assay [10] deals with OVCAR3. Put plainly: OVCAR3 xenograft in huNOG mice, combination with carboplatin. The class given is in vivo. The note with it: 56 days after transplantation; CS4135 0.1 mg/kg iv days 38, 45 (sequential: 48, 55), carboplatin 60 mg/kg ip days 38, 45. As for the experimental part: In this test, NOG (huNOG) mice (described in the aforementioned Example 13) transplanted with ovarian cancer cell line OVCAR3 and human CD34-positive cells were used. The OVCAR3 cell line was transplanted subcutaneously to the right flank of the mice, and the mice were divided into groups 38 days after transplantation. Individuals whose tumor volume reached 119 to 210 mm^3 were divided into groups. Vehicle 1 and CS4135 were administered into the mouse tail vein 38 and 45 days after transplantation. PBS containing 0.05% Tween-20 was used as Vehicle 1. Vehicle 2 and carboplatin (Bristol Myers Squibb Company) were administered intraperitoneally to the mice 38 and 45 days after transplantation. Physiological saline was used as Vehicle 2.
Tumor volume was measured 38, 42, 45, 48, 52, and 56 days after transplantation, and the average tumor volume was indicated for each group. The tumor volume was calculated by the following equation: […]
as §1

Take `CCc1c2c(nc3ccc(OC(=O)N4CCC(N5CCCCC5)CC4)cc13)-c1cc3c(c(=O)n1C2)COC(=O)[C@]3(O)CC` [Irinotecan hydrochloride, irinotecan hydrochloride, reference compound]: the “Tumor growth inhibition: TGI” value in [1] stood at 65%.
For `O=C(c1cc(Cc2n[nH]c(=O)c3ccccc23)ccc1F)N1CCN(C(=O)C2CC2)CC1` [olaparib], the CLDN6 expression induction result was “enhancement of CLDN6 expression induction was not observed at any concentration” in assay [2] and “concentration-dependent enhancement of CLDN6 expression induction was observed” in assay [3].
Take `CCc1c2c(nc3ccc(OC(=O)N4CCC(N5CCCCC5)CC4)cc13)-c1cc3c(c(=O)n1C2)COC(=O)[C@]3(O)CC` [irinotecan]: in [4], the TGF-β1 expression entry was “Increase in TGF-β1 expression was observed”. Besides, in assay [5], the CLDN6 expression result is on record as “Increase in CLDN6 expression was observed”.
Turning to `COc1cccc2c1C(=O)c1c(O)c3c(c(O)c1C2=O)C[C@@](O)(C(=O)CO)C[C@@H]3O[C@H]1C[C@H](N)[C@H](O)[C@H](C)O1` [doxorubicin], the “expression of TGF-β1 in cancer cells” value in assay [6] was “induce expression of TGF-β11 in cancer cells”.
As to `CC(=O)O[C@H]1C(=O)[C@@]2(C)[C@H]([C@H](OC(=O)c3ccccc3)[C@]3(O)C[C@H](OC(=O)[C@H](O)[C@@H](NC(=O)c4ccccc4)c4ccccc4)C(C)=C1C3(C)C)[C@]1(OC(C)=O)CO[C@@H]1C[C@@H]2O` [paclitaxel], the “expression of TGF-β1 in cancer cells” value in [6] is reported as “induce expression of TGF-β11 in cancer cells”.
In the case of `Nc1ccn([C@@H]2O[C@H](CO)[C@@H](O)C2(F)F)c(=O)n1` [gemcitabine], the TGF-β1 expression result in [4] is on record as “Increase in TGF-β1 expression was observed”. Besides, the CLDN6 expression entry in assay [5] is “Increase in CLDN6 expression was observed”.
As to `N.N.[Cl][Pt][Cl]` [cisplatin], the TGF-β1 expression result in assay [4] is reported as “Increase in TGF-β1 expression was observed”. Further, the CLDN6 expression entry in assay [7] was “increase in CLDN6 expression”; in assay [5] it was “Increase in CLDN6 expression was observed”.
For `N.N.O=C([O-])C1(C(=O)[O-])CCC1.[Pt+2]` [Carboplatin, carboplatin], the “Tumor growth inhibition: TGI” value is on record as 44% in assay [8] and −9% in [10]. In assay [9], the “CLDN6 expression in the tumor” value is “increased”. The TGF-β1 expression result in [4] is “Increase in TGF-β1 expression was observed”. Further, the results for the CLDN6 expression result in assay [7] and in [5] were “increase in CLDN6 expression” and “Increase in CLDN6 expression was observed”, respectively.

The values above are taken from patent US20240425589A1, “CYTOTOXICITY-INDUCING THERAPEUTIC AGENT FOR USE IN TREATMENT OF CANCER” (CHUGAI SEIYAKU KABUSHIKI KAISHA, priority 2021, published 2024).
